The values that follow are results of earlier work, collected in patent US20100120075A1, “Composition and a method for suppressing the luminescence intensity decline in a luciferin-luciferase reaction” (priority 2008, published 2010).

In the series the test system is Gaussia luciferase.

“nonyl phenoxylpolyethoxylethanol [NP-40]”: the “suppression of reaction time-dependent decline in luminescent intensity” value (shortened to “suppression”) was “suppressed”.
“polyoxyethylene octyl phenyl ether [Triton X-100]”: the “suppression” value was “suppressed”.
In the case of `CCCCCCCCCCCCOS(=O)(=O)[O-].[Na+]` [sodium dodecyl sulfate], the “deactivation of the luciferase” value is listed as “deactivated the luciferase” and the “suppression” value was “did not suppress the decline”.
